Measurements: ChEMBL document CHEMBL1268962 (Bioorg Med Chem Lett, 2010)

What was measured:
Format in all cases: functional, cell-based
[1] = tested on: L1210; assay: Cytotoxicity against mouse L1210 cells after 72 hrs; conditions: L1210, 72 h
[2] = tested on: HCT-116; assay: Cytotoxicity against vinblastine-resistant human HCT116 cells after 72 hrs; conditions: HCT-116, 72 h
[3] = tested on: HCT-116; assay: Cytotoxicity against human HCT116 cells after 72 hrs; conditions: HCT-116, 72 h

Structure (SMILES): CCC1=C[C@@H]2CN(CCc3c([nH]c4ccccc34)[C@@](C(N)=O)(c3cc4c(cc3OC)N(C)C3[C@]45CCN4CC=C[C@@](CC)([C@@H](OC(C)=O)[C@]3(O)C(=O)OC)[C@H]45)C2)C1 (some centres undefined)
- IC50 [1]: > 10 µM
- IC50 [2]: > 10 µM
- IC50 [3]: > 10 µM

Structure (SMILES): CCOC(=O)[C@]1(c2cc3c(cc2OC)N(C)C2[C@]34CCN3CC=C[C@@](CC)([C@@H](OC(C)=O)[C@]2(O)C(=O)OC)[C@H]34)C[C@H]2CN(CCc3c1[nH]c1ccccc31)C[C@](O)(CC)C2 (some centres undefined)
- IC50 [1]: 0.06 µM
- IC50 [2]: 0.83 µM
- IC50 [3]: 0.07 µM

Structure (SMILES): CCC1=C[C@@H]2CN(CCc3c([nH]c4ccccc34)[C@@](C(=O)OC)(c3cc4c(cc3OC)N(C)C3[C@]45CCN4CC=C[C@@](CC)([C@@H](OC(C)=O)[C@]3(O)C(=O)OC)[C@H]45)C2)C1 (some centres undefined)
- IC50 [1]: 0.065 µM
- IC50 [2]: 0.6 µM
- IC50 [3]: 0.075 µM

Structure (SMILES): CCOC(=O)[C@]1(c2cc3c(cc2OC)N(C)C2[C@]34CCN3CC=C[C@@](CC)([C@@H](OC(C)=O)[C@]2(O)C(=O)OC)[C@H]34)C[C@@H]2C=C(CC)CN(CCc3c1[nH]c1ccccc31)C2 (some centres undefined)
- IC50 [1]: 0.62 µM
- IC50 [2]: 4.1 µM
- IC50 [3]: 0.64 µM

Structure (SMILES): CCC1=C[C@@H]2CN(CCc3c([nH]c4ccccc34)[C@@](C#N)(c3cc4c(cc3OC)N(C)C3[C@]45CCN4CC=C[C@@](CC)([C@@H](OC(C)=O)[C@]3(O)C(=O)OC)[C@H]45)C2)C1 (some centres undefined)
- IC50 [1]: 6.5 µM
- IC50 [2]: 6.8 µM
- IC50 [3]: 6.1 µM

Structure (SMILES): CC[C@]1(O)C[C@@H]2CN(CCc3c([nH]c4ccccc34)[C@@](C#N)(c3cc4c(cc3OC)N(C)C3[C@]45CCN4CC=C[C@@](CC)([C@@H](OC(C)=O)[C@]3(O)C(=O)OC)[C@H]45)C2)C1 (some centres undefined)
- IC50 [1]: 0.63 µM
- IC50 [2]: 7.4 µM
- IC50 [3]: 0.67 µM

Structure (SMILES): CC[C@]1(O)C[C@@H]2CN(CCc3c([nH]c4ccccc34)[C@@](CCO)(c3cc4c(cc3OC)N(C)C3[C@]45CCN4CC=C[C@@](CC)([C@@H](OC(C)=O)[C@]3(O)C(=O)OC)[C@H]45)C2)C1 (some centres undefined)
- IC50 [1]: 6.5 µM
- IC50 [2]: > 10 µM
- IC50 [3]: 5.8 µM

Structure (SMILES): CC[C@]1(O)C[C@@H]2CN(CCc3c([nH]c4ccccc34)[C@@](C(N)=O)(c3cc4c(cc3OC)N(C)C3[C@]45CCN4CC=C[C@@](CC)([C@@H](OC(C)=O)[C@]3(O)C(=O)OC)[C@H]45)C2)C1 (some centres undefined)
- IC50 [1]: > 10 µM
- IC50 [2]: > 10 µM
- IC50 [3]: > 10 µM

Structure (SMILES): CC[C@]1(O)C[C@@H]2CN(CCc3c([nH]c4ccccc34)[C@@](C(=O)OC)(c3cc4c(cc3OC)N(C)[C@H]3[C@@](O)(C(=O)OC)[C@H](OC(C)=O)[C@]5(CC)C=CCN6CC[C@]43[C@@H]65)C2)C1 [VINBLASTINE]
- IC50 [1]: 0.006 µM
- IC50 [2]: 0.6 µM

Structure (SMILES): CCC1=C[C@@H]2CN(CCc3c([nH]c4ccccc34)[C@@](C=O)(c3cc4c(cc3OC)N(C)C3[C@]45CCN4CC=C[C@@](CC)([C@@H](OC(C)=O)[C@]3(O)C(=O)OC)[C@H]45)C2)C1 (some centres undefined)
- IC50 [1]: 6.3 µM
- IC50 [2]: > 10 µM
- IC50 [3]: 7 µM
